# ChEMBL document CHEMBL1149878, “Tetramic and tetronic acids: an update on new derivatives and biological aspects” (Bioorg Med Chem, 2008)
# Where a SMILES comes first, the peptide text is derived from it. [ ]: non-standard residue; d: D form. The star is where a group is joined. X1 = COC1=CC(=O)N(C(=O)[C@@H](O*)C(C)C)[C@H]1Cc1ccccc1; NMe2Val = CC(C)[C@@H](C(=O)*)N(C)C; NMeV = CN[C@H](C(=O)O)C(C)C
# Experiments:
# [1] = Toxicity in rat; assay type: organism-based; conditions: in vivo, read-out: LC50 (the source's name)
# Staphylococcus aureus [2] = experiment: Antimicrobial activity against Staphylococcus aureus; assay type: functional
# Enterococcus faecalis [3] = experiment: Antimicrobial activity against Enterococcus faecalis; assay type: functional
# HL-60 = experiment: Growth inhibition of human HL60 cells by MTT assay after 24 hrs; assay type: functional, cell-based; conditions: HL-60, 24 h
# A549 [4] = experiment: Growth inhibition of human A549 cells by MTT assay after 24 hrs; assay type: functional, cell-based; conditions: A549, 24 h
# Bel-7402 = experiment: Growth inhibition of human Bel7402 cells by MTT assay after 24 hrs; assay type: functional, cell-based; conditions: Bel-7402, 24 h
# P388 = experiment: Growth inhibition of mouse P388 cells by MTT assay after 24 hrs; assay type: functional, cell-based; conditions: P388, 24 h
# A549 [5] = experiment: Cytotoxicity against human A549 cells; assay type: functional, cell-based
# SK-OV-3 = experiment: Cytotoxicity against human SK-OV-3 cells; assay type: functional, cell-based
# SK-MEL-2 = experiment: Cytotoxicity against human SK-Mel-2 cells; assay type: functional, cell-based
# XF498 = experiment: Cytotoxicity against human XF498 cells; assay type: functional, cell-based
# HCT-15 = experiment: Cytotoxicity against human HCT15 cells; assay type: functional, cell-based
# Clostridioides difficile = experiment: Antimicrobial activity against Clostridium difficile; assay type: functional
# Phocaeicola vulgatus = experiment: Antimicrobial activity against Bacteroides vulgatus; assay type: functional
# [6] = test system: Streptococcus constellatus; experiment: Antimicrobial activity against Streptococcus constellatus; assay type: functional
# Eubacterium limosum = experiment: Antimicrobial activity against Eubacterium limosum; assay type: functional
# Bifidobacterium longum = experiment: Antimicrobial activity against Bifidobacterium longum; assay type: functional
# Bacteroides sp. = experiment: Antimicrobial activity against Bacteroides melaninogenicus; assay type: functional
# Fusobacterium nucleatum = experiment: Antimicrobial activity against Fusobacterium nucleatum; assay type: functional
# [7] = test system: Fusobacterium necrophorum; experiment: Antimicrobial activity against Fusobacterium necrophorum; assay type: functional
# Bacteroides fragilis = experiment: Antimicrobial activity against Bacteroides fragilis; assay type: functional
# Glutamate NMDA receptor = experiment: Displacement of [3H]L689560 from glycine site of rat NMDA receptor; assay type: protein-complex assay
# [8] = biological target: Glutamate NMDA receptor (Rattus norvegicus) (UniProt P35439+Q00959+Q00960+Q00961+Q62645+Q8VHN2+Q9R1M7); experiment: Antagonist activity at NMDA receptor in rat cortex assessed as inhibition of NMDA-induced depolarization; assay type: functional, tissue-based
# Beta-secretase 1 = Beta-secretase 1 (Homo sapiens, UniProt P56817); experiment: Inhibition of BACE1 by FRET assay
# A498 = experiment: Growth inhibition of human A498 cells; assay type: functional, cell-based
# Enterococcus faecalis [9] = experiment: Growth inhibition of multidrug resistant Enterococcus faecalis; assay type: functional, organism-based
# HeLa = experiment: Growth inhibition of human HeLa cells; assay type: functional, cell-based
# Staphylococcus aureus [10] = experiment: Growth inhibition of multidrug resistant Staphylococcus aureus; assay type: functional, organism-based
# [11] = Inhibition of Escherichia coli H560 DNA gyrase
# Streptococcus equinus = experiment: Antimicrobial activity against Streptococcus bovis A5169; assay type: functional
# Enterococcus [12] = experiment: Antimicrobial activity against Enterococcus; assay type: functional
# Legionella = experiment: Antimicrobial activity against Legionella; assay type: functional
# Streptococcus pyogenes = experiment: Antimicrobial activity against Streptococcus pyogenes 930; assay type: functional
# [13] = biological target: Human immunodeficiency virus type 1 integrase (Human immunodeficiency virus 1, UniProt Q7ZJM1); experiment: Inhibition of HIV1 integrase strand transfer activity
# [14] = Inhibition of HCV NS5B polymerase; set-up: species or system Hepacivirus hominis
# Plasmodium falciparum = experiment: Antiplasmodial activity against Plasmodium falciparum after 72 hrs; assay type: functional, organism-based
# Staphylococcus aureus [15] = experiment: Antimicrobial activity against methicillin-resistant Staphylococcus aureus F597; assay type: functional
# L929 = experiment: Growth inhibition of mouse L929 cells; assay type: cell-based
# [16] = Growth inhibition of human KB3-1 cells; assay type: functional, cell-based; conditions: KB 3-1
# [17] = biological target: M-phase inducer phosphatase 2 (Homo sapiens, UniProt P30305); experiment: Inhibition of cdc25B
# [18] = Selectivity for cdc25B over VHR
# Enterococcus [19] = experiment: Growth inhibition of multidrug resistant Enterococcus; assay type: functional
# B16 = experiment: Cytotoxicity against mouse B16 cells; assay type: functional, cell-based
# [20] = Inhibition of Escherichia coli MurB
# Escherichia coli = experiment: Antimicrobial activity against Escherichia coli; assay type: functional
# Sequence of Human immunodeficiency virus type 1 integrase (Q7ZJM1 whole entry): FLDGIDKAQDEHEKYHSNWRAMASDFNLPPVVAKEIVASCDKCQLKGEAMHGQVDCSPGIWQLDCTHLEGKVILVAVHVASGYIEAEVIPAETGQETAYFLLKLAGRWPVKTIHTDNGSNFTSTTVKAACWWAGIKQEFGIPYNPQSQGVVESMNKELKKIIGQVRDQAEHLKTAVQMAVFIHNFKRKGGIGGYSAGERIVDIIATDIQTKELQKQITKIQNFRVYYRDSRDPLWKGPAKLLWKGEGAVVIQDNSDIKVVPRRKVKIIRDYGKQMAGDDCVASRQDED
# Sequence of Beta-secretase 1 (P56817 whole entry): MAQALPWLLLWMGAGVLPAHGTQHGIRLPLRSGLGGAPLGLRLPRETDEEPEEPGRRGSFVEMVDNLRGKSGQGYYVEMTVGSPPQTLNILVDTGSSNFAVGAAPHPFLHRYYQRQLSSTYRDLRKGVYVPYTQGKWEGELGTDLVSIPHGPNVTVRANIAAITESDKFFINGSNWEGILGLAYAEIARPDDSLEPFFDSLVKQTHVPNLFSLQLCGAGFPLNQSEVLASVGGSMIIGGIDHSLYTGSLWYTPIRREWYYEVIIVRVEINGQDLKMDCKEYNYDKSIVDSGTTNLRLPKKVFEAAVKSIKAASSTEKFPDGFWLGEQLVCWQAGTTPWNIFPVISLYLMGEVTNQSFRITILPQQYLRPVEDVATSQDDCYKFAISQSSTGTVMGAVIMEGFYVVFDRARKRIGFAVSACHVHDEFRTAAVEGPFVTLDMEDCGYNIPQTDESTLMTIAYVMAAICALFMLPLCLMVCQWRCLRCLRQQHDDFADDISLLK
# Sequence of M-phase inducer phosphatase 2 (P30305 whole entry): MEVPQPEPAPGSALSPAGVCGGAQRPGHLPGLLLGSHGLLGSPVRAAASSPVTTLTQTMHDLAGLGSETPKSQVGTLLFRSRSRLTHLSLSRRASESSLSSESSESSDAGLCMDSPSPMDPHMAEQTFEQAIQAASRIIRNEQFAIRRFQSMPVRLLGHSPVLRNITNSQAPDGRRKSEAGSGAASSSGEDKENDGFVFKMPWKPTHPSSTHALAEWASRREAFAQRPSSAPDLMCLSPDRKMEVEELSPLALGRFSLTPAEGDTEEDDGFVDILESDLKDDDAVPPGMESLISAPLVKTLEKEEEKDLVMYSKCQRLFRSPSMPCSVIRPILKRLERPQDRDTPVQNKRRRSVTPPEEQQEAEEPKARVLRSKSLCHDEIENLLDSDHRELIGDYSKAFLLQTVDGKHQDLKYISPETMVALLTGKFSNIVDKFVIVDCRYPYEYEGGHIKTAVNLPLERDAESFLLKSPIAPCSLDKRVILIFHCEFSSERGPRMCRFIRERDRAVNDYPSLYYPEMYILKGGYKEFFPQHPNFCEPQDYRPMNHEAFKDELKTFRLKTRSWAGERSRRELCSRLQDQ
compound,measurement,setting,value
CC(=O)C1=C(O)[C@@H]2[C@H]3c4c[nH]c5cccc(c45)C[C@H]3C(C)(C)N2C1=O [CYCLOPIAZONIC ACID],LD50,[1],30 mg/kg
C/C(=C\CC(O)CC(O)CCC(C)C(O)C(C)C(O)CCCC(O)C(C)C(O)/C(C)=C/C(C)C(=O)/C(C)=C/C(O)C(O)CC(O)CC(OC1OC(C)C(O)C(N)C1O)C(C)CCC(O)CC(O)CCC(C)C(O)C(C)C(O)C(C)C)C(=O)C1=C(O)/C(=C/C(C)C)N(C)C1=O (stereo unspecified) [VANCORESMYCIN],MIC,Staphylococcus aureus [2],< 0.04 µg/mL
same,MIC,Enterococcus faecalis [3],0.3 µg/mL
C/C=C/CCCC(C)/C(O)=C1\C(=O)[C@H]([C@H](C)O)N(C)C1=O (stereo partly specified) [PENICILLENOL C1],IC50,HL-60,> 100 µM
same,IC50,A549 [4],> 100 µM
same,IC50,Bel-7402,> 100 µM
same,IC50,P388,> 100 µM
C/C=C1/C(=O)/C(=C(/O)C(C)CCCCCC)C(=O)N1C (stereo unspecified) [PENICILLENOL B1],IC50,HL-60,3.2 µM
same,IC50,A549 [4],> 100 µM
same,IC50,Bel-7402,> 100 µM
same,IC50,P388,> 100 µM
C=C1C=C(CCC/C(C)=C/C=C/[C@@H](C)CC/C=C(/C)CC2OC(=O)C(C)=C2O)C(=O)N1CCC(C)C (stereo partly drawn) [(S)-SARCOTRINE A],IC50,A549 [5],3.4 µg/mL
same,IC50,SK-OV-3,3.4 µg/mL
same,IC50,SK-MEL-2,3.4 µg/mL
same,IC50,XF498,3.4 µg/mL
same,IC50,HCT-15,3.4 µg/mL
C=C1OC(=O)/C(=C(\O)CCCCCCCCC)C1=O [AGGLOMERIN A],MIC,Clostridioides difficile,3.13 µg/mL
same,MIC,Phocaeicola vulgatus,3.13 µg/mL
same,MIC,[6],3.13 µg/mL
same,MIC,Eubacterium limosum,6.25 µg/mL
same,MIC,Bifidobacterium longum,6.25 µg/mL
same,MIC,Bacteroides sp.,6.25 µg/mL
same,MIC,Fusobacterium nucleatum,6.25 µg/mL
same,MIC,[7],6.25 µg/mL
same,MIC,Bacteroides fragilis,3.13 µg/mL
CC/C=C1\NC(=O)C(c2cccc(Oc3ccccc3)c2)=C1O,IC50,Glutamate NMDA receptor,0.7 µM
same,Kb,[8],6.15 µM
CCC(C)C1NC(=O)C(SCc2cccc(C(F)(F)F)c2)=C1O (stereo unspecified),IC50,Beta-secretase 1,60 µM
C=C1C=C(CCC/C(C)=C/C=C/[C@H](C)CC/C=C(/C)CC2OC(=O)C(C)=C2O)C(=O)N1CCC(C)C (stereo partly drawn) [(R)-SARCOTRINE A],IC50,A549 [5],3.4 µg/mL
same,IC50,SK-OV-3,3.4 µg/mL
same,IC50,SK-MEL-2,3.4 µg/mL
same,IC50,XF498,3.4 µg/mL
same,IC50,HCT-15,3.4 µg/mL
CC(C)CCCCCCCCCCC/C(O)=C1\C(=O)C(C)N(C)C1=O (stereo unspecified) [MELOPHLIN Q],IC50,A498,3.4 µM
C[C@@H]1CC[C@@H]2[C@H](C=C[C@@H](C)[C@@]2(C)/C(O)=C2/C(=O)[C@H]([C@H](C)O)N(C)C2=O)C1,IC50,Enterococcus faecalis [9],20 µg/mL
same,IC90,HeLa,7.1 µg/mL
same,IC50,Staphylococcus aureus [10],10 µg/mL
CC(/C=C/C(O)=C1\C(=O)CNC1=O)=C\c1ccc2ccccc2c1,IC50,[11],3.5 µg/mL
CC(/C=C/C(O)=C1/C(=O)CNC1=O)=C\[C@@H](C)[C@H]1O[C@@]2(C)O[C@@H](C=C[C@@]23CO3)[C@H]1C [TIRANDALYDIGIN],MIC,Streptococcus equinus,12.5 µg/mL
same,MIC,Enterococcus [12],> 16 µg/mL
same,MIC,Legionella,> 32 µg/mL
same,MIC,Bacteroides fragilis,0.5 µg/mL
same,MIC,Streptococcus pyogenes,3.1 µg/mL
CC1=C[C@@H]2CC[C@@H](O)[C@H](C)[C@@H]2[C@@H](C(=O)C2=C(O)C(O)NC2=O)[C@@H]1C[C@H]1O[C@@]2(CC[C@H](C)[C@@H](c3cc(O)cc(O)c3)O2)[C@@H](C)C[C@@H]1C (stereo partly specified) [INTEGRAMYCIN],IC50,[13],4 µM
CC(C)(C)CN1C(=O)C(C2=NS(=O)(=O)c3ccccc3N2)=C(O)[C@@H]1C(C)(C)C,IC50,[14],0.0017 µM
COC1=CC(=O)N(C(=O)[C@@H](OC(=O)[C@@H]2CCCN2C(=O)[C@@H]2CCCN2C(=O)[C@H](C(C)C)N(C)C(=O)[C@@H](NC(=O)[C@H](C(C)C)N(C)C)C(C)C)C(C)C)[C@H]1Cc1ccccc1 [DOLASTATIN 15] (NMe2Val-V[NMeV]PP-X1),IC50,Plasmodium falciparum,0.2 µM
CC1=C[C@H]2[C@H](O)CC[C@@](C)(/C(O)=C3/C(=O)CNC3=O)[C@H]2C[C@@H]1CCC(C)C(O)/C(C)=C/CC(O)/C=C/C(C)C(O)/C=C/CC(O)/C=C/CC(O)CC1CCCN1C(=N)N (stereo partly specified) [TPU-0037 A],MIC,Staphylococcus aureus [15],3.13 µg/mL
CCCCCCCCC(C)CC/C(O)=C1\C(=O)[C@H](C)N(C)C1=O (stereo partly specified) [MELOPHLIN B],IC50,L929,< 10 µM
same,IC50,A498,< 10 µM
same,IC50,[16],< 10 µM
same,IC50,HeLa,< 10 µM
CCn1cc(C(=O)O)c(=O)c2cc(F)c(N3CCNCC3)cc21 [NORFLOXACIN],IC50,[11],1 µg/mL
CCCCCCCC(C)CCC/C(O)=C1\C(=O)C(C)N(C)C1=O (stereo unspecified) [MELOPHLIN C],IC50,L929,< 10 µM
same,IC50,A498,< 10 µM
same,IC50,[16],< 10 µM
same,IC50,HeLa,< 10 µM
CCCCCCC(C)/C(O)=C1\C(=O)[C@H]([C@H](C)O)N(C)C1=O (stereo partly specified) [PENICILLENOL A1],IC50,HL-60,0.76 µM
CCCCCCCCCCCCCCCC(=O)C1=C(O)[C@@H](COC(=O)N=C=NC(=O)OCC)OC1=O,IC50,[17],0.4 µM
same,Selectivity ratio,[18],30
C/C=C/CCCC(C)/C(O)=C1\C(=O)[C@@H]([C@@H](C)O)N(C)C1=O (stereo partly specified) [PENICILLENOL C2],IC50,HL-60,> 100 µM
same,IC50,A549 [4],> 100 µM
same,IC50,Bel-7402,> 100 µM
same,IC50,P388,> 100 µM
C/C=C/C=C/[C@@H]1C(C)=C[C@@H]2C[C@H](C)CC[C@H]2[C@]1(C)/C(O)=C1\C(=O)N[C@@H]([C@H](C)O)C1=O [CONIOSETIN],MIC,Staphylococcus aureus [10],0.3 µg/mL
same,MIC,Enterococcus [19],2.5 µg/mL
C[C@H]1C=CC2C1C[C@H]1/C=C/CC/C(O)=C3/C(=O)N[C@H](C3=O)[C@@H](O)CCNC(=O)/C=C/C=C\C[C@H]21 (stereo partly specified) [CYLINDRAMIDE],IC50,B16,0.8 µg/mL
CC(/C=C/C(=O)C1=C(O)CN(C)C1=O)=C\c1ccc2ccccc2c1,IC50,[11],10.3 µg/mL
CCCCCCC(C)/C(O)=C1\C(=O)[C@@H]([C@@H](C)O)N(C)C1=O (stereo partly specified) [PENICILLENOL A2],IC50,A549 [4],> 100 µM
same,IC50,Bel-7402,> 100 µM
same,IC50,P388,> 100 µM
C/C=C1\C(=O)/C(=C(/O)C(C)CCCCCC)C(=O)N1C (stereo unspecified) [PENICILLENOL B2],IC50,A549 [4],> 100 µM
same,IC50,Bel-7402,> 100 µM
same,IC50,P388,> 100 µM
CCC(C)CCCCCCCCCC/C(O)=C1\C(=O)C(C)N(C)C1=O (stereo unspecified) [MELOPHLIN R],IC50,L929,< 10 µM
same,IC50,A498,< 10 µM
same,IC50,[16],< 10 µM
same,IC50,HeLa,< 10 µM
O=C1O/C(=C\c2cccc3ccccc23)C(O)=C1c1cc(Cl)cc(Cl)c1,MIC,Staphylococcus aureus [2],1 µg/mL
same,IC50,[20],21 µM
same,Kd,[20],0.04 µM
same,MIC,Escherichia coli,1 µg/mL
